Source: patent US5221752A, “α-keto amide derivatives” (Nippon Kayaku Kabushiki Kaisha, priority 1990, dated 1993)
*1 amine or outer side, *2 acyl side, *3 side chain or, on linkers, in order; H or OH if unused. Where a SMILES comes first, the peptide text is derived from it. [ ]: non-standard residue; d: D form. The star is where a group is joined. ξ: configuration not given here. X1 = O=C(C(=O)[*:2])C1CCCN1[*:1]; Cbz = O=C(OCc1ccccc1)*; ξV = CC(C)C(N)C(=O)O; OBn = c1ccc(CO*)cc1

The molecules below were run against T1, prolyl endopeptidase (Sus scrofa, UniProt P23687) (assay: Enzyme inhibiting activity (prolyl endopeptidase; substrate benzyloxycarbonylglycylproline β-naphthylamide)). Details: not given.
T1 construct: prolyl endopeptidase obtained from porcine kidneys used as the enzyme; from tissue; host or cells: porcine kidneys
T1 sequence (P23687 whole entry): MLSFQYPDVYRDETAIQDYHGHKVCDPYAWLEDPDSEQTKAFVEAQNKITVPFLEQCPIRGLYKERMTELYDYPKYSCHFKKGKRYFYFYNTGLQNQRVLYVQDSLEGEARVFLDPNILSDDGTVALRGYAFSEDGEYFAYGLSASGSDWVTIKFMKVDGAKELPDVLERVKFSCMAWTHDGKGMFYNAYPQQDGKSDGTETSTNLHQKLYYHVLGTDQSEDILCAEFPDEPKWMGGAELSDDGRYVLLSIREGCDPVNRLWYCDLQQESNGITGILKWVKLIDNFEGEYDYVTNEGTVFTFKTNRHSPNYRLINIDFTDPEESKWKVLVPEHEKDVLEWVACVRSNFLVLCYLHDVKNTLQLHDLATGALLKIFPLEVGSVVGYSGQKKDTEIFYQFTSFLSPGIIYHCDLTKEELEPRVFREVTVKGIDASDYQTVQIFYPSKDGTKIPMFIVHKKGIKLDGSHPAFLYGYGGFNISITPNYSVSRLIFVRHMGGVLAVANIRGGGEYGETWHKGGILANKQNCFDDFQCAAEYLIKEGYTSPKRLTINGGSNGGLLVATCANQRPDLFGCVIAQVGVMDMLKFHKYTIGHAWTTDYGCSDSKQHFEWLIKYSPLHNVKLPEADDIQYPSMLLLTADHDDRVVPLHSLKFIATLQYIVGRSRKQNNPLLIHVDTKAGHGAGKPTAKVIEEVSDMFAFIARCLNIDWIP
Type: biochemical, porcine
Method: Experiments were conducted to evaluate the enzyme inhibiting activity of the compounds of the present invention by using prolyl endopeptidase as the enzyme model. They are given in the following Test Examples.
Method of Assaying Enzyme Inhibiting Activity
Benzyloxycarbonylglycylproline β-naphthylamide (0.1 mM) used as the substrate was reacted with prolyl endopeptidase obtained from porcine kidneys used as the enzyme in a 0.025 M tris(hydroxymethyl)methanamine hydrochloric acid solution (pH: 7.5) at 37° C. reaction mixture for 30 min and then the absorbance of the product at 525 nm was measured.

Point of comparison: O=C(O)CNC(=O)C(=O)C1CCCN1C(=O)C(Cc1ccccc1)NC(=O)OCc1ccccc1 (stereo not drawn) [Example 22, N-Benzyloxycarbonylphenylalanyl-[2-oxo-2-(pyrrolidin-2-yl)acetyl]-glycine], IC50 2.28 nM. Against it:
- CC(C)C[C@@H](NC(=O)C(=O)C1CCCN1C(=O)OCc1ccccc1)C(=O)OC(C)(C)C (stereo partly drawn) [Example 15, [2-Oxo-2-(N-benzyloxycarbonylpyrrolidin-2-yl)acetyl]-D-leucine t-butyl ester] — 45-fold higher, 103 nM
- CC(C)C[C@@H](NC(=O)C(=O)C1CCCN1C(=O)C(NC(=O)C(NC(=O)OCc1ccccc1)C(C)C)C(C)C)C(=O)NC(C(=O)OCc1ccccc1)C(C)C (stereo partly drawn) [Example 7, N-Benzyloxycarbonylvalylvalyl-[2-oxo-2-(pyrrolidin-2-yl)acetyl]-D-leucylvaline benzyl ester] (Cbz-[ξV][ξV][X1][dL][ξV]-OBn) — 3.9-fold higher, 9 nM
- CC(C)C[C@@H](NC(=O)C(=O)C1CCCN1C(=O)C(Cc1ccccc1)NC(=O)OCc1ccccc1)C(=O)OC(C)(C)C (stereo partly drawn) [Example 16, N-Benzyloxycarbonylphenylalanyl-[2-oxo-2-(pyrrolidin-2-yl)acetyl]-D-leucin t-butyl ester] — within 1.5-fold, 3.37 nM
- CC(C)C[C@@H](NC(=O)C(=O)C1CCCN1C(=O)C(Cc1ccccc1)NC(=O)OCc1ccccc1)C(=O)O (stereo partly drawn) [Example 17, N-Benzyloxycarbonylphenylalanyl-[2-oxo-2-(pyrrolidin-2-yl)acetyl)-D-leucine] — within 1.5-fold, 2.42 nM
- CC(C)C[C@@H](NC(=O)C(=O)C1CCCN1C(=O)C(Cc1ccccc1)NC(=O)OCc1ccccc1)C(=O)NC(C)(C)C (stereo partly drawn) [Example 19, N-Benzyloxycarbonylphenylalanyl-[2-oxo-2-(pyrrolidin-2-yl)acetyl]-D-leucinet-butylamide] — within 1.5-fold, 2.36 nM
- CC(C)C[C@@H](NC(=O)C(=O)C1CCCN1C(=O)C1CCCN1C(=O)OCc1ccccc1)C(=O)NC(C(=O)OCc1ccccc1)C(C)C (stereo partly drawn) [Example 20, N-Benzyloxycarbonylprolyl-[2-oxo-2-(pyrrolidin-2-yl)acetyl]-D-leucylvaline benzyl ester] — within 1.5-fold, 3.25 nM
- CC(C)CC(NC(=O)C(=O)C1CCCN1C(=O)C(Cc1ccccc1)NC(=O)OCc1ccccc1)C(=O)OC(C)(C)C (stereo not drawn) [Example 23, N-benzyloxycarbonylphenylalanyl-[2-oxo-2-(pyrrolidin-2-yl)acetyl]-leucine t-butyl ester] — within 1.5-fold, 3.03 nM
- CC(C)C[C@@H](NC(=O)C(=O)C1CCCN1C(=O)C(NC(=O)C(N)C(C)C)C(C)C)C(=O)NC(C(=O)O)C(C)C (stereo partly drawn) [Example 8, Valylvalyl-[2 oxo 2-(pyrrolidin-2-yl)acetyl]-D-leucylvaline] (H-[ξV][ξV][X1][dL][ξV]-OH) — 8.7-fold higher, 19.9 nM
- CC(C)C[C@@H](NC(=O)C(=O)C1CCCN1C(=O)CC(C)(C)C)C(=O)OC(C)(C)C (stereo partly drawn) [Example 14, [2-Oxo-2-(N-(3,3-dimethylbutanoyl)pyrrolidin-2-yl)-acetyl]-D-leucine t-butyl ester] — 9.6-fold higher, 21.9 nM
- CC(C)(C)OC(=O)CNC(=O)C(=O)C1CCCN1C(=O)C(Cc1ccccc1)NC(=O)OCc1ccccc1 (stereo not drawn) [Example 21, N-Benzyloxycarbonylphenylalanyl-[2-oxo-2-(pyrrolidin-2-yl)acetyl]-glycine t-butyl ester] — 1.5-fold lower, 1.49 nM

Same assay, conditions: prolyl endopeptidase from porcine kidneys; substrate 0.1 mM; pH 7.5; 37° C.; 30 min; absorbance 525 nm

In the case of “N-Benzyloxycarbonylphenylalanyl-[2 hydroxy-2-(pyrrolidin-2-yl)acetyl]-D-leucylvaline benzyl ester [Example 9]”, the “IC50 (concentration necessary for 50% inhibition)” value is reported as 2.4 ng/mL.
